Assay results as given in publication PMC6136712, “Ex vivo drug sensitivity testing as a means for drug repurposing in esophageal adenocarcinoma” (PLoS ONE, 2018).
Structures can show the parent of a compound that is named as a salt.

Assays:
Format in all cases: cell-based, human
[1] = tested on: Flo-1 cells; assay: FDA library drug sensitivity testing (CellTiter-Glo, 72 h); details: Flo-1; sDSSmod = DSSmod (patient cells) - DSSmod (normal cells)
From the text: (§1) OE33, OE19 and SKGT2 human esophageal adenocarcinoma cell lines were obtained from the European Collection of Cell Culture ([…]). Flo1, EAC42 and EAC47 cells were established in the Capobianco Laboratory. EAC42 and EAC47 human esophageal adenocarcinoma cell lines are derived from patients undergoing surgery at the Miller School of Medicine, University of Miami. The Capobianco laboratory obtained written informed consent from all patients and approval from the Institutional Research Ethics Committee.
(§2) Drug sensitivity testing (DST) was performed as described previously. […] Individual drugs were dissolved in 100% DMSO and tested in duplicates starting at a maximal test concentration of 10μM then over a 20,000-fold concentration range to generate dose response curves. Wells with assay buffer containing DMSO served as negative controls. 1000 exponentially growing cells were seeded per well in 384-well micro-titer plates and incubated in the presence of compounds in a humidified environment at 37°C and 5% CO2. After 72 hours of treatment, cell viability was assessed by measuring ATP levels via bioluminescence (CellTiter-Glo, Promega) according to manufactures recommendations. Interpretation of curve parameters was performed according to the modified drug sensitivity scoring (DSSmod) function developed by Swords et al. As a final step, the selective DSSmod (sDSSmod) for each drug in each patient screen is calculated according to the formula sDSSmod = DSSmod (patient cells)—DSSmod (normal cells). Given in this way, the sDSSmod incorporated information on each drug’s potency, efficacy, effect range and therapeutic index, making it possible to prioritize compounds over multiple parameters using a single numerical metric. In addition, this methodology allows us to rank compounds by cancer-selective efficacy for each individual patient. […] All calculations and scoring routines are implemented in MatLab and additional curve fitting and statistical analyses are performed in GraphPad prism.

[2] = tested on: OE19 cells; assay: as above; details: sDSSmod = DSSmod (patient cells) - DSSmod (normal cells)
From the text: as §1
as §2, with “As a final step, the selective DSSmod (sDSSmod) for each drug in each patient screen is calculated according to the formula sDSSmod = DSSmod (patient cells)—DSSmod (normal cells).” left out, “metric.” for “metric. In addition, this methodology allows us to rank compounds by cancer-selective efficacy for each individual patient.”

[3] = tested on: normal esophageal epithelium cell line EACN42; assay: FDA library drug sensitivity testing (CellTiter-Glo, 72 h), normal control cells; design: key to DSS: modified drug sensitivity score (DSSmod) from dose-response curve fit
Method in brief: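 HPV E6-E7-immortalized normal human esophageal epithelial cells, 1000 per well, exposed 72 h at 37 °C to drugs in duplicate from 10μM top concentration across a 20,000-fold range. Viability by ATP bioluminescence; DMSO wells as negative control; curves scored with modified drug sensitivity score (DSSmod).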

[4] = tested on: EAC42 cells; assay: FDA library drug sensitivity testing (CellTiter-Glo, 72 h); details: EAC42; sDSSmod = DSSmod (patient cells) - DSSmod (normal cells)
From the text: as §1
as §2, with “As a final step, the selective DSSmod (sDSSmod) for each drug in each patient screen is calculated according to the formula sDSSmod = DSSmod (patient cells)—DSSmod (normal cells).” left out, “metric.” for “metric. In addition, this methodology allows us to rank compounds by cancer-selective efficacy for each individual patient.”

[5] = tested on: EAC47 cells; assay: as above; details: EAC47; sDSSmod = DSSmod (patient cells) - DSSmod (normal cells)
From the text: as §1
as §2, with “As a final step, the selective DSSmod (sDSSmod) for each drug in each patient screen is calculated according to the formula sDSSmod = DSSmod (patient cells)—DSSmod (normal cells).” left out, “metric.” for “metric. In addition, this methodology allows us to rank compounds by cancer-selective efficacy for each individual patient.”

[6] = tested on: OE33 cells; assay: as above; details: OE33; sDSSmod = DSSmod (patient cells) - DSSmod (normal cells)
From the text: as §1
as §2, with “As a final step, the selective DSSmod (sDSSmod) for each drug in each patient screen is calculated according to the formula sDSSmod = DSSmod (patient cells)—DSSmod (normal cells).” left out, “metric.” for “metric. In addition, this methodology allows us to rank compounds by cancer-selective efficacy for each individual patient.”

[7] = tested on: SK-GT2 cells; assay: as above; details: SK-GT2; sDSSmod = DSSmod (patient cells) - DSSmod (normal cells)
From the text: as §1
as §2, with “As a final step, the selective DSSmod (sDSSmod) for each drug in each patient screen is calculated according to the formula sDSSmod = DSSmod (patient cells)—DSSmod (normal cells).” left out, “metric.” for “metric. In addition, this methodology allows us to rank compounds by cancer-selective efficacy for each individual patient.”

[8] = Homo sapiens; EACN42 normal esophageal cells, 72 h, cell viability (ATP), max test concentration 10μM
[9] = drug sensitivity score, EACN42 normal esophageal cells, 72 h
[10] = Homo sapiens, 72 h, EACN42 normal esophageal cells, cell viability (ATP), max test concentration 10μM

| SMILES | sDSSmod [1] | sDSSmod [2] | EC50 [3, 8] [nM] | DSS [3, 9] | sDSSmod [4] | sDSSmod [5] | sDSSmod [6] | sDSSmod [7] | EC50 [3, 10] [nM] |
| --- | --- | --- | --- | --- | --- | --- | --- | --- | --- |
| COc1cccc2c1C(=O)c1c(O)c3c(c(O)c1C2=O)C[C@@](O)(C(C)=O)C[C@@H]3O[C@H]1C[C@H](N)[C@H](O)[C@H](C)O1 [Daunorubicin HCl] | 5.15 | -13.6679 | 980 | 21.12 | – | – | – | – | – |
| Nc1nc(F)nc2c1ncn2[C@@H]1O[C@H](COP(=O)(O)O)[C@@H](O)[C@@H]1O [Fludara] | -5.23 | -23.9486 | – | 46.34 | -46.3431 | -46.3431 | -12.9868 | -12.9068 | 50 |
| CC(=O)O[C@H]1C(=O)[C@@]2(C)[C@H]([C@H](OC(=O)c3ccccc3)[C@]3(O)C[C@H](OC(=O)[C@H](O)[C@@H](NC(=O)c4ccccc4)c4ccccc4)C(C)=C1C3(C)C)[C@]1(OC(C)=O)CO[C@@H]1C[C@@H]2O [Paclitaxel] | 9.33 | – | – | 34.94 | -12.1 | -17.6632 | 7.642 | 12.8 | 10 |
| COc1cccc2c1C(=O)c1c(O)c3c(c(O)c1C2=O)C[C@@](O)(C(=O)CO)C[C@@H]3O[C@H]1C[C@H](N)[C@H](O)[C@H](C)O1 [Doxorubicin] | 7.66 | -12.9053 | – | 15.67 | – | – | – | -8.365 | 1420 |
| COc1c(C)c2c(c(O)c1C/C=C(\C)CCC(=O)O)C(=O)OC2 [Mycophenolic] | 10.92 | – | – | 2.17 | 8.479 | 5.9818 | 16.23 | – | – |
| C/C=C(\C)C(=O)N[C@@H](c1ccccc1)[C@@H](O)C(=O)O[C@H]1C[C@@]2(O)[C@@H](OC(=O)c3ccccc3)[C@@H]3[C@]4(OC(C)=O)CO[C@@H]4C[C@H](O)[C@@]3(C)C(=O)[C@H](OC(C)=O)C(=C1C)C2(C)C [Cephalomannine] | 12.79 | – | 162 | 23.35 | -5.552 | -8.868 | 5.452 | 21.46 | – |
| CO[C@H]1C[C@@H]2CC[C@@H](C)[C@@](O)(O2)C(=O)C(=O)N2CCCC[C@H]2C(=O)O[C@H]([C@H](C)C[C@@H]2CC[C@@H](O)[C@H](OC)C2)CC(=O)[C@H](C)/C=C(\C)[C@@H](O)[C@@H](OC)C(=O)[C@H](C)C[C@H](C)/C=C/C=C/C=C/1C [Rapamycin] | -10.72 | -11.012 | – | 11.01 | -6.15 | -8.931 | -11.012 | -11.012 | 3000 |
| COc1c(C)c2c(c(O)c1C/C=C(\C)CCC(=O)OCCN1CCOCC1)C(=O)OC2 [Mycophenolate mofetil] | 5.44 | – | – | 2.66 | 6.417 | – | 11.03 | – | 2180 |
| [Na+].[Na+].[Na+].[O]=[V]([O-])([O-])[O-] [Sodium orthovanadate] | 13.33 | 5.913 | – | 0 | – | – | – | 23.66 | – |
| Cc1ccc(Nc2nccc(N(C)c3ccc4c(C)n(C)nc4c3)n2)cc1S(N)(=O)=O.Cl [Pazopanib HCl] | 8.16 | – | – | 0.07 | – | – | 11.37 | – | – |
| CC(=O)O[C@@]12CO[C@@H]1C[C@H](O)[C@@]1(C)C(=O)[C@H](O)C3=C(C)[C@@H](OC(=O)[C@H](O)[C@@H](NC(=O)OC(C)(C)C)c4ccccc4)C[C@@](O)([C@@H](OC(=O)c4ccccc4)[C@H]21)C3(C)C [Docetaxel] | 8.04 | – | – | 40.14 | -15.5932 | -23.2183 | – | 16.5247 | 3000 |
| Cc1cn(-c2cc(NC(=O)c3ccc(C)c(Nc4nccc(-c5cccnc5)n4)c3)cc(C(F)(F)F)c2)cn1 [Nilotinib] | 37.8 | 18.74 | – | 0.43 | – | – | 32.09 | 27.22 | > 10000 |
| CC(C)C[C@H](NC(=O)[C@H](CCc1ccccc1)NC(=O)CN1CCOCC1)C(=O)N[C@@H](Cc1ccccc1)C(=O)N[C@@H](CC(C)C)C(=O)[C@@]1(C)CO1 [Cartilzomib, Carfilzomib] | -44.35 | -42.8127 | – | 44.43 | – | – | -43.92 | -44.432 | 80 |
| O=P(O)(O)C(O)(Cn1ccnc1)P(=O)(O)O [Zoledronic Acid] | 5.26 | – | – | 0 | 9.833 | 6.526 | – | – | – |
| COc1cc([C@@H]2c3cc4c(cc3[C@@H](O[C@@H]3O[C@@H]5CO[C@@H](c6cccs6)O[C@H]5[C@H](O)[C@H]3O)[C@H]3COC(=O)[C@H]23)OCO4)cc(OC)c1O [Teniposide] | 10.22 | – | – | 6.79 | – | – | 39.45 | – | 5170 |
| CC[C@]1(O)C[C@H]2CN(CCc3c([nH]c4ccccc34)[C@@](C(=O)OC)(c3cc4c(cc3OC)N(C=O)[C@H]3[C@@](O)(C(=O)OC)[C@H](OC(C)=O)[C@]5(CC)C=CCN6CC[C@]43[C@@H]65)C2)C1 [Vincristine] | 6.31 | – | – | – | -7.92 | -16.3015 | -8.234 | -7.21 | 30 |
| Cc1[nH]c2ccccc2c1CCNCc1ccc(/C=C/C(=O)NO)cc1 [Panobinostat] | -40.42 | -40.4215 | – | 40.42 | 7.607 | – | -40.4215 | -40.4215 | 90 |
| O=C(CCCCCCC(=O)Nc1ccccc1)NO [Vorinostat] | 9.58 | 9.843 | – | 5.09 | 7.485 | 5.288 | 15.71 | – | – |
| CC[C@@]1(O)C(=O)OCc2c1cc1n(c2=O)Cc2cc3c(CN(C)C)c(O)ccc3nc2-1 [Topotecan HCl] | -20.26 | -36.6414 | – | 43.21 | -9.367 | -11.6273 | – | -13.0332 | 60 |
| O=C1c2c(O)ccc(O)c2C(=O)c2c(NCCNCCO)ccc(NCCNCCO)c21 [Mitoxantrone Hydrochloride] | 17.0838 | – | – | 17.16 | 6.699 | 5.242 | 9.033 | – | 1670 |
| Nc1nc(F)nc2c1ncn2[C@@H]1O[C@H](CO)[C@@H](O)[C@@H]1O [Fludarabine] | – | -20.7262 | – | 42.19 | -42.0707 | -42.19 | -9.248 | -12.4173 | 70 |
| CC[C@@]1(O)C(=O)OCc2c1cc1n(c2=O)Cc2cc3ccccc3nc2-1 [Camptothecin] | -20.76 | -34.9341 | – | 52.69 | -13.5945 | -15.9763 | – | -11.3049 | 20 |
